Data published in publication PMC8909834, “An Orally Bioavailable and Highly Efficacious Inhibitor of CDK9/FLT3 for the Treatment of Acute Myeloid Leukemia” (Cancers, 2022).

What was measured:
Test in all cases: Kinase Hotspot radiolabel assay
Assay type in all cases: biochemical
Conditions in all cases: read-out: % Residual Activity
[1] = biological target: T1, PKCb2 (Homo sapiens, UniProt P05771)
T1 construct: purchased Reaction Biology Corporation (Kinase HotSpot)
How it was run: (§1)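 Step one: screen at 1 µM across 369 kinases (Hotspot, radiolabel detection). Step two: Ki determination for kinases with >90% inhibition.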

[2] = biological target: T2, NLK (Homo sapiens, UniProt Q9UBE8)
T2 construct: purchased Reaction Biology Corporation (Kinase HotSpot)
How it was run: as §1

[3] = biological target: T3, TRKC (Homo sapiens, UniProt Q16288)
T3 construct: purchased Reaction Biology Corporation (contract assay)
How it was run: as §1

[4] = biological target: T4, Haspin (Homo sapiens, UniProt Q8TF76)
T4 construct: purchased Reaction Biology Corporation (Kinase HotSpot)
How it was run: as §1

[5] = biological target: T5, TNK1 (Homo sapiens, UniProt Q13470)
T5 construct: purchased Reaction Biology Corporation (Kinase HotSpot)
How it was run: as §1

[6] = biological target: T6, PKCtheta (Homo sapiens, UniProt Q04759)
T6 construct: purchased Reaction Biology Corporation (Kinase HotSpot)
How it was run: as §1

[7] = biological target: T7, MEKK1 (Homo sapiens, UniProt Q13233)
T7 construct: purchased Reaction Biology Corporation (Kinase HotSpot)
How it was run: as §1

[8] = biological target: T8, RIPK2 (Homo sapiens, UniProt O43353)
T8 construct: purchased Reaction Biology Corporation (Kinase HotSpot)
How it was run: as §1

[9] = biological target: T9, c-MET (Homo sapiens, UniProt P08581)
T9 construct: purchased Reaction Biology Corporation (Kinase HotSpot)
How it was run: as §1

[10] = biological target: T10, PKCmu/PRKD1 (Homo sapiens, UniProt Q15139)
T10 construct: purchased Reaction Biology Corporation (Kinase HotSpot)
How it was run: as §1

[11] = biological target: T11, PASK (Homo sapiens, UniProt Q96RG2)
T11 construct: purchased Reaction Biology Corporation (Kinase HotSpot)
How it was run: as §1

[12] = biological target: T12, CAMK1a (Homo sapiens, UniProt Q14012)
T12 construct: purchased Reaction Biology Corporation (Kinase HotSpot)
How it was run: as §1

[13] = biological target: T13, CK2a (Homo sapiens, UniProt P68400)
T13 construct: purchased Reaction Biology Corporation (Kinase HotSpot)
How it was run: as §1

[14] = biological target: T14, DYRK1B (Homo sapiens, UniProt Q9Y463)
T14 construct: purchased Reaction Biology Corporation (Kinase HotSpot)
How it was run: as §1

[15] = biological target: T15, CAMK2g (Homo sapiens, UniProt Q13555)
T15 construct: purchased Reaction Biology Corporation (Kinase HotSpot)
How it was run: as §1

[16] = biological target: T16, MEK5 (Homo sapiens, UniProt Q13163)
T16 construct: purchased Reaction Biology Corporation (Kinase HotSpot)
How it was run: as §1

[17] = biological target: T17, CAMK2a (Homo sapiens, UniProt Q9UQM7)
T17 construct: purchased Reaction Biology Corporation (Kinase HotSpot)
How it was run: as §1

[18] = biological target: T18, ERN1/IRE1 (Homo sapiens, UniProt O75460)
T18 construct: purchased Reaction Biology Corporation (Kinase HotSpot)
How it was run: as §1

[19] = biological target: T19, MARK4 (Homo sapiens, UniProt Q96L34)
T19 construct: purchased Reaction Biology Corporation (Kinase HotSpot)
How it was run: as §1

[20] = biological target: T20, P38d/MAPK13 (Homo sapiens, UniProt O15264)
T20 construct: purchased Reaction Biology Corporation (Kinase HotSpot)
How it was run: as §1

[21] = biological target: T21, MKK4 (Homo sapiens, UniProt P45985)
T21 construct: purchased Reaction Biology Corporation (Kinase HotSpot)
How it was run: as §1

[22] = biological target: T22, MINK/MINK1 (Homo sapiens, UniProt Q8N4C8)
T22 construct: purchased Reaction Biology Corporation (Kinase HotSpot)
How it was run: as §1

[23] = biological target: T23, RSK4 (Homo sapiens, UniProt Q9UK32)
T23 construct: purchased Reaction Biology Corporation (Kinase HotSpot)
How it was run: as §1

[24] = biological target: T24, AKT3 (Homo sapiens, UniProt Q9Y243)
T24 construct: purchased Reaction Biology Corporation (Kinase HotSpot)
How it was run: as §1

[25] = biological target: T25, RSK1 (Homo sapiens, UniProt Q15418)
T25 construct: purchased Reaction Biology Corporation (Kinase HotSpot)
How it was run: as §1

[26] = biological target: T26, CK1g3 (Homo sapiens, UniProt Q9Y6M4)
T26 construct: purchased Reaction Biology Corporation (Kinase HotSpot)
How it was run: as §1

[27] = biological target: T27, NEK1 (Homo sapiens, UniProt Q96PY6)
T27 construct: purchased Reaction Biology Corporation (Kinase HotSpot)
How it was run: as §1

[28] = biological target: T28, CK2a2 (Homo sapiens, UniProt P19784)
T28 construct: purchased Reaction Biology Corporation (Kinase HotSpot)
How it was run: as §1

[29] = biological target: T29, PKCeta (Homo sapiens, UniProt P24723)
T29 construct: purchased Reaction Biology Corporation (Kinase HotSpot)
How it was run: as §1

[30] = biological target: T30, SRPK2 (Homo sapiens, UniProt P78362)
T30 construct: purchased Reaction Biology Corporation (Kinase HotSpot)
How it was run: as §1

T9 sequence (P08581 25-1390): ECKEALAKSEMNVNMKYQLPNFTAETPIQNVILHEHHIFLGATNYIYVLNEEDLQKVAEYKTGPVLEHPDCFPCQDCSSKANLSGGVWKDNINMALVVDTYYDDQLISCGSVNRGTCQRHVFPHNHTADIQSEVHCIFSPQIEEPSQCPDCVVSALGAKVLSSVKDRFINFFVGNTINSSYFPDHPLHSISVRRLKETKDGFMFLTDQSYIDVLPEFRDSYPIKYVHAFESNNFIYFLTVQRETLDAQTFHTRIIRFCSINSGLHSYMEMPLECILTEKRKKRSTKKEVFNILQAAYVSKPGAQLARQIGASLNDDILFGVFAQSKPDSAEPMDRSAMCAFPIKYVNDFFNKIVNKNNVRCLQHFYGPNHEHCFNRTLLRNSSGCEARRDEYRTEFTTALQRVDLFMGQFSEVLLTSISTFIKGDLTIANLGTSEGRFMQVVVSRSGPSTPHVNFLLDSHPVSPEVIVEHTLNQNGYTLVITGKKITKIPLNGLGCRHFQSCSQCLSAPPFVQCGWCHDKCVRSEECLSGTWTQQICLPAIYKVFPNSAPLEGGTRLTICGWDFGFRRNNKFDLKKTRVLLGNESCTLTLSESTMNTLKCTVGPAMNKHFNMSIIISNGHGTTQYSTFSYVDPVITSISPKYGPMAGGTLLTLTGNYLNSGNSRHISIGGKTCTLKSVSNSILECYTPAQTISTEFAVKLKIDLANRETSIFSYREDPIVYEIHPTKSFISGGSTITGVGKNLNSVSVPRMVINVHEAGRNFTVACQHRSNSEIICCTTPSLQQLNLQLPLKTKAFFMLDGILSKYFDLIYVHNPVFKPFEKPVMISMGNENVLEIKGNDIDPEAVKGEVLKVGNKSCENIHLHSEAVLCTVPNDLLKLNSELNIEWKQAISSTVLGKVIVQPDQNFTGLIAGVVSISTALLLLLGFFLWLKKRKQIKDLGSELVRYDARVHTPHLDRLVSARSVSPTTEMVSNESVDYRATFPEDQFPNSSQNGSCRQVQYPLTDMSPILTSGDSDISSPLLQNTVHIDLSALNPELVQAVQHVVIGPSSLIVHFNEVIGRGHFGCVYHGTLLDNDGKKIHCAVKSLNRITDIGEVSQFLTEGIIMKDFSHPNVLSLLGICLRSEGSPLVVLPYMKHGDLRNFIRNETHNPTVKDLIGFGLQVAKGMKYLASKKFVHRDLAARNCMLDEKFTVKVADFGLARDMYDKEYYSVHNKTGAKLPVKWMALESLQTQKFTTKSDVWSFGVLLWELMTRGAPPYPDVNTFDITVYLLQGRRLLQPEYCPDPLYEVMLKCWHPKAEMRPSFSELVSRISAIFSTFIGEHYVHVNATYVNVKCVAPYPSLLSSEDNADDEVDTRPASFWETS
T17 sequence (Q9UQM7 whole entry): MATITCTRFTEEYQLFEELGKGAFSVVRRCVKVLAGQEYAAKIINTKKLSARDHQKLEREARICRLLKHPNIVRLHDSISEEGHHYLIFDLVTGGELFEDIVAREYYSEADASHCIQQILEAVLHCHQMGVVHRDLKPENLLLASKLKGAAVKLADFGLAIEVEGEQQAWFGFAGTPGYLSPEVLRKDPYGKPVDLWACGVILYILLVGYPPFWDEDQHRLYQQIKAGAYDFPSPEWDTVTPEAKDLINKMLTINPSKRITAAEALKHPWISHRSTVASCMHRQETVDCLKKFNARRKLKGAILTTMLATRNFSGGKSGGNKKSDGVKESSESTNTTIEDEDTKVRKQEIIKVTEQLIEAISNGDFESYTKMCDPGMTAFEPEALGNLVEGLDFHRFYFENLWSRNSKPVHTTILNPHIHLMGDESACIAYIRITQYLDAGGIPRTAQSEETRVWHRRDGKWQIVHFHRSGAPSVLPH
T25 sequence (Q15418 whole entry): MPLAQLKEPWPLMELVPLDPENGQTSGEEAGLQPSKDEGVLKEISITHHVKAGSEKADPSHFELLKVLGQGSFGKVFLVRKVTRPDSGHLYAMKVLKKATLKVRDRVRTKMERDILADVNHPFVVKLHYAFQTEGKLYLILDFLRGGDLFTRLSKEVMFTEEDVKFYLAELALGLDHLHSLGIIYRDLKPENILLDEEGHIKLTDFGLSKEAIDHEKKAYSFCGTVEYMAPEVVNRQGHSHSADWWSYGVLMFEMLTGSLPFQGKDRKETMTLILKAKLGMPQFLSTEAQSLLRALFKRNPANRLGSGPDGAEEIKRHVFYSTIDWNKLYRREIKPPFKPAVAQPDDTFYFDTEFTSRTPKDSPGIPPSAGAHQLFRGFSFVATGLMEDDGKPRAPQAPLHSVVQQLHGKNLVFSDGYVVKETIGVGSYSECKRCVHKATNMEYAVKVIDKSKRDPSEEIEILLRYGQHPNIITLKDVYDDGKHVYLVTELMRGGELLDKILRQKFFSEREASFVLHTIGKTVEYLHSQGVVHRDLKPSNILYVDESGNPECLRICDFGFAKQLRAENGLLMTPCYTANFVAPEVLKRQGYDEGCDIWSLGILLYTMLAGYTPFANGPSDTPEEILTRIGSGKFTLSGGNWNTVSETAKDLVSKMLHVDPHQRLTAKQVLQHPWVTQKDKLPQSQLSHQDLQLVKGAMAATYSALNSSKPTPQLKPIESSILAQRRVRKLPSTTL
T14 sequence (Q9Y463 whole entry): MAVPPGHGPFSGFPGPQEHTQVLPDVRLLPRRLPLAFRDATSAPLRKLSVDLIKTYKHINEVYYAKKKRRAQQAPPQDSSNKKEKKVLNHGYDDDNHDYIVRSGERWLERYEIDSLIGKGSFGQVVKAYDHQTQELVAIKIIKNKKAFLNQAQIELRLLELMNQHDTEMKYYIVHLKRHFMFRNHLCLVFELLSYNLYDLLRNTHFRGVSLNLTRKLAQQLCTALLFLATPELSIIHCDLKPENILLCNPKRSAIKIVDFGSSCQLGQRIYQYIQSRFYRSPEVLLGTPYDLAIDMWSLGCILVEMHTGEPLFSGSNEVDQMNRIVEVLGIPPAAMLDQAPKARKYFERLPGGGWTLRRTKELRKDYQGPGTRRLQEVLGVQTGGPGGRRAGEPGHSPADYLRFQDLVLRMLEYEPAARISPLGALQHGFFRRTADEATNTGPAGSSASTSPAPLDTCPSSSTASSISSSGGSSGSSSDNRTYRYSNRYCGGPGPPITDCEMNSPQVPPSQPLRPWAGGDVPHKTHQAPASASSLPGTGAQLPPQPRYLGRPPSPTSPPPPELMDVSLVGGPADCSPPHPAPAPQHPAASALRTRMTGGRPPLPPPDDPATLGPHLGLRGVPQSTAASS
T2 sequence (Q9UBE8 whole entry): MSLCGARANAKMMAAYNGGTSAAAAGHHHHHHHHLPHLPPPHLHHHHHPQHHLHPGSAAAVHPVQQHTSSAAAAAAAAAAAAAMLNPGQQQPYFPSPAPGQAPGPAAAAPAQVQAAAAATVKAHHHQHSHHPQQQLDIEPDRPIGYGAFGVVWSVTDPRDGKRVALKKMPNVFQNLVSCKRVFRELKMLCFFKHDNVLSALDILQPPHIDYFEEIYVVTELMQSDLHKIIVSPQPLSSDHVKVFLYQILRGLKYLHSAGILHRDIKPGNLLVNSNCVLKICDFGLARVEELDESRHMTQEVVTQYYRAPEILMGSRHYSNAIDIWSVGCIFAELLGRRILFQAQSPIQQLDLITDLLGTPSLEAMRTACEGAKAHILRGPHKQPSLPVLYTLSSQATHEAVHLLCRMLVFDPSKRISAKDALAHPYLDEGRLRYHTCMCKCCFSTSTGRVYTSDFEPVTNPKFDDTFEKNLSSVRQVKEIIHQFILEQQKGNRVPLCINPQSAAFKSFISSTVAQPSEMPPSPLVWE
T4 sequence (Q8TF76 whole entry): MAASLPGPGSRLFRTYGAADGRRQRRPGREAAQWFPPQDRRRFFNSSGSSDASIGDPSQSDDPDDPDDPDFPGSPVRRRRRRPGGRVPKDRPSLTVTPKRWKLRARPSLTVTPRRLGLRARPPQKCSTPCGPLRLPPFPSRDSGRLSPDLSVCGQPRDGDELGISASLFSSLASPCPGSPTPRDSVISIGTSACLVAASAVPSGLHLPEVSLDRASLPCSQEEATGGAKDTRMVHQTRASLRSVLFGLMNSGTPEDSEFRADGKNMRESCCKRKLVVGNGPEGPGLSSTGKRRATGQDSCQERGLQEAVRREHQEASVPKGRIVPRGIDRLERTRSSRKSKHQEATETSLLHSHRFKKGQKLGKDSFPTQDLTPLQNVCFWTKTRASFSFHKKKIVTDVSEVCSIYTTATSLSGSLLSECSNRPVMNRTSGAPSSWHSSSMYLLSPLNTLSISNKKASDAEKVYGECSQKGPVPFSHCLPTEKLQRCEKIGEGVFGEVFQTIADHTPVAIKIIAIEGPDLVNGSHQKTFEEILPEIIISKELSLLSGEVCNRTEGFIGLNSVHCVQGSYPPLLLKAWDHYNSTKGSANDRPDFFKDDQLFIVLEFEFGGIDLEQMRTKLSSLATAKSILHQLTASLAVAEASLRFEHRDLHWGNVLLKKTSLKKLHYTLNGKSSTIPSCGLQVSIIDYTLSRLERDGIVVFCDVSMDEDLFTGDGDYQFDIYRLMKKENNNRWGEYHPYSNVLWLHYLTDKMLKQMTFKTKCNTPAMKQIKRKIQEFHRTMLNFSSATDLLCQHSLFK
T13 sequence (P68400 whole entry): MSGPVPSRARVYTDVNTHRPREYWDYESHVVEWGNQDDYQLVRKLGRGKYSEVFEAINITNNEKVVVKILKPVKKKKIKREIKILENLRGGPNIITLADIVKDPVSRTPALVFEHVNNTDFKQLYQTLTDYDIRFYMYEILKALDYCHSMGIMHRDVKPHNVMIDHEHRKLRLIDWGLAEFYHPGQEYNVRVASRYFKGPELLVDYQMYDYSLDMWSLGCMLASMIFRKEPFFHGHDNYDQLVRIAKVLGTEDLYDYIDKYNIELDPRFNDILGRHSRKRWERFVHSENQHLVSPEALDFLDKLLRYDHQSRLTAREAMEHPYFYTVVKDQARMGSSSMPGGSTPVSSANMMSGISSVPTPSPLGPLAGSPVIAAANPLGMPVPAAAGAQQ

## Cc1cnc(N[C@H]2CC[C@H](N)CC2)nc1-c1cnc2ccc(-c3ccccc3)cn12 [CDDD11-8]
[1]
  remaining activity at 1 µM: 121%
[2]
  remaining activity at 1 µM: 83.4%
[3]
  remaining activity at 1 µM: 1.95%
[4]
  remaining activity at 1 µM: 65.1%
[5]
  remaining activity at 1 µM: 55.4%
[6]
  remaining activity at 1 µM: 46.2%
[7]
  remaining activity at 1 µM: 103%
[8]
  remaining activity at 1 µM: 78.1%
[9]
  remaining activity at 1 µM: 103%
[10]
  remaining activity at 1 µM: 53.1%
[11]
  remaining activity at 1 µM: 43.1%
[12]
  remaining activity at 1 µM: 80.7%
[13]
  remaining activity at 1 µM: 80.3%
[14]
  remaining activity at 1 µM: 22.2%
[15]
  remaining activity at 1 µM: 96.8%
[16]
  remaining activity at 1 µM: 99.6%
[17]
  remaining activity at 1 µM: 20.3%
[18]
  remaining activity at 1 µM: 41.8%
[19]
  remaining activity at 1 µM: 22.4%
[20]
  remaining activity at 1 µM: 99%
[21]
  remaining activity at 1 µM: 75.6%
[22]
  remaining activity at 1 µM: 8.86%
[23]
  remaining activity at 1 µM: 43.4%
[24]
  remaining activity at 1 µM: 77.2%
[25]
  remaining activity at 1 µM: 56.9%
[26]
  remaining activity at 1 µM: 63.2%
[27]
  remaining activity at 1 µM: 40.8%
[28]
  remaining activity at 1 µM: 74.7%
[29]
  remaining activity at 1 µM: 47.3%
[30]
  remaining activity at 1 µM: 95.3%
